# Assay results: patent publication US20230272485A1, “REPLICATION STRESS PATHWAY AGENT COMPOSITIONS AND METHODS FOR TREATING CANCER” (Boundless Bio, Inc., priority 2022, published 2023)
# Entries after “also recorded” stand apart in the source; their conditions may differ.
# Legend:
# [1] = system: Glioblastoma cell line (GBM39); assay: GBM39 cells treated with erlotinib, FISH for MYC amplification; format: cell-based; conditions: erlotinib 1 uM, 4 weeks, vs control cells
# Description: Glioblastoma cell line (GBM39) was assessed for ecDNA in untreated samples and cells treated with the EGFR inhibitor erlotinib (1 uM). Cells were treated for 4 weeks and then assessed by FISH for amplification of MYC ecDNA. […] Cells treated with the erlotinib developed brightly staining MYC amplification on ecDNA. Amplification of MYC on ecDNA and on HSR was quantified from the FISH images in control and treated cells.
# [2] = system: gastric cancer cell line SNU16; assay: SNU16 cells treated with infigratinib over about 80 days; relative copy number by metaphase DAPI/FISH; format: cell-based
# Description: A gastric cancer cell line SNU16 was assessed for the presence of ecDNA using metaphase DAPI/FISH using probes to detect MYC, FGFR2 and EGFR. […] SNU16 cells were then treated with the FGFR inhibitor infigratinib over the course of about 80 days. ecDNA was assessed by metaphase DAPI/FISH and relative copy number for MYC, FGFR2 and EGFR was tracked at day 0 and 5 additional time points.
# [3] = system: gastric cancer CDX SNU16 mouse model; assay: gastric cancer CDX SNU16 mouse model, tumor growth over 50 days and copy number in tumors; format: in vivo, mice
# Description: To assess the effect of an ecDTx agent on gastric cancer and ecDNA development, a gastric cancer CDX SNU16 mouse model was treated with vehicle only, with infigratinib alone (15 mg/kg PO;QD), the ecDTx CHK1 inhibitor (20 mg/kg SQ;Q2D) or with a combination of infigratinib (15 mg/kg PO;QD) and the ecDTx CHK1 inhibitor (20 mg/kg SQ;Q2D). Tumor growth in the animals was monitored over 50 days. […] The effect of the combination was further assessed by evaluating copy number for MYC and FGFR2 in the tumors from the treated mice. […] FGFR2 amplification was abrogated in the presence of the ecDTx agent alone or when used in combination with infigratinib. The presence of the FGRF2 and MYC amplification on ecDNA was validated by FISH (FIG. 3C).
# gastric cancer CDX model = assay: gastric cancer CDX model, 7-day multi-dosing experiment; format: in vivo, mice
# Description: The ecDTx agent was further tested in the gastric cancer CDX model in a 7-day multi-dosing experiment. Mice were treated with vehicle only (PO; QDx 7 days), with infigratinib alone (15 mg/kg PO;QD x 7 days), the ecDTx CHK1 inhibitor (20 mg/kg SC;Q2D x 4 doses) or with a combination of infigratinib and the ecDTx CHK1 inhibitor (same dosing as with individual agents).
# Tumor volume at day 6 is shown in the box and whisker graph in FIG. 4B. […] Copy number for MYC and FGFR2 was evaluated in the tumors from the treated mice. […] This increase was abrogated in the presence of the ecDTx agent. MYC and FGFR2 expression was also evaluated in the tumors of the treated mice (FIG. 4D).
# [4] = system: lung cancer cell line (H2170); assay: H2170 cells treated with paclitaxel, ABCB1 transporter amplified ecDNA (FISH, qPCR); format: cell-based
# Description: The lung cancer cell line (H2170) was assessed for the presence of oncogene-amplified ecDNA. […] The cell line was treated with paclitaxel and the presence and level of ecDNA was assessed for ABCB1 transporter amplified ecDNA. […] Gene copy number for the ABCB1 transporter was assessed by qPCR.
# [5] = system: colorectal cancer line COLO320 HSR; assay: COLO320 HSR cells treated with paclitaxel, ecDNA by metaphase FISH and PCR gene panel
# [6] = tumors from treated mice, 50-day study
smiles,measurement,setting,value
C#Cc1cccc(Nc2ncnc3cc(OCCOC)c(OCCOC)cc23)c1 [erlotinib],MYC amplification on HSR,[1],did not show any significant difference
same,MYC amplification on ecDNA,[1],dramatic increase; also recorded: significant increase
CCN1CCN(c2ccc(Nc3cc(N(C)C(=O)Nc4c(Cl)c(OC)cc(OC)c4Cl)ncn3)cc2)CC1 [infigratinib],copy number of FGFR2,[2]; after about 10 days of treatment,reduced dramatically
same,copy number of EGFR,[2]; treatment over about 80 days,rapidly increased
same,copy number of MYC,[2]; treatment over about 80 days,rapidly increased
same,tumor growth,"[3]; compared to vehicle, over 50 days, infigratinib 15 mg/kg PO QD, ecDTx CHK1 inhibitor 20 mg/kg SQ Q2D",decreased tumor growth
same,trend at the later time points (resistance),"[3]; later time points of 50 days, infigratinib 15 mg/kg PO QD",suggested resistance was beginning to develop
same,copy number of FGFR2 in the tumors,[3]; [6],dramatically higher than the other groups
same,copy number of MYC in the tumors,[3]; [6],relatively similar
same,FGFR2 expression in the tumors,gastric cancer CDX model,markedly increased
same,MYC expression in the tumors,gastric cancer CDX model,similar
same,copy number of FGFR2 in the tumors,gastric cancer CDX model,dramatically higher than the other groups
same,copy number of MYC in the tumors,gastric cancer CDX model,relatively similar
CC(=O)O[C@H]1C(=O)[C@@]2(C)[C@H]([C@H](OC(=O)c3ccccc3)[C@]3(O)C[C@H](OC(=O)[C@H](O)[C@@H](NC(=O)c4ccccc4)c4ccccc4)C(C)=C1C3(C)C)[C@]1(OC(C)=O)CO[C@@H]1C[C@@H]2O [paclitaxel],copy number of the ABCB1 transporter amplified ecDNA,"[4]; FISH, vs untreated controls",marked increase
same,gene copy number for the ABCB1 transporter,"[4]; qPCR, vs untreated control",dramatically higher; also recorded: significant increase
same,amplification of various genes,"[5]; PCR with a panel of genes, paclitaxel-treated cells",highest amount of amplification was seen with ABCB1
same,copy number of ecDNA harboring the ABCB1 drug efflux pump,"[5]; paclitaxel resistant cells, metaphase FISH",high copy number
